Laboratory results reported in the supplement of paper PMC10307832.

compound: COC1=C(C=C(C=C1)C2=CC3=NC=CN3C(=N2)NC4=C(C=CC=N4)C(=O)N)OC [BAY61-3606] + Cc1cc(Nc2cc(N3CCN(C)CC3)nc(Sc3ccc(NC(=O)C4CC4)cc3)n2)n[nH]1 [Tozasertib] (partner 0.1 µM); assay: relative viability (nuclei count vs DMSO), 5 days (fraction); higher = more cells survive; conditions: first compound 0.2 µM
In short: (§1)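 The day after seeding in 1536-well plates, lung cancer cell lines were treated by pin tool with a single drug, or with a fixed anchor-drug dose together with five library-drug doses (not always all listed) in √10 steps. After 5 days, a combined fix-and-stain solution (final 0.05% Triton X-100, 1% formaldehyde, 1 ug/ml Hoechst) was added. Nuclei counted on 4× images gave relative viability as treated counts over vehicle counts, reported as the median of duplicate plates.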

Row | Cell Line | relative viability
1 | SK-MES-1 | 0.623

same assay, conditions: first compound 0.6325 µM

Row | Cell Line | relative viability
2 | NCI-H2342 | 0.668
3 | NCI-H1623 | 0.394
4 | NCI-H2009 | 0.651
5 | SK-LU-1 | 0.231
6 | SW 1573 | 0.197
7 | NCI-H661 | 0.378
8 | NCI-H2228 | 0.16
9 | NCI-H1648 | 0.408
10 | COR-L23 | 0.14
11 | COR-L 105 | 0.36
12 | NCI-H522 | 0.574
13 | NCI-H520 | 0.452
14 | NCI-H2023 | 0.197
15 | NCI-H1650 | 0.329
16 | SK-MES-1 | 0.61

same assay, conditions: first compound 2 µM

Row | Cell Line | relative viability
17 | NCI-H2342 | 0.525
18 | NCI-H1623 | 0.328
19 | NCI-H2009 | 0.511
20 | SK-LU-1 | 0.2
21 | SW 1573 | 0.146
22 | NCI-H661 | 0.362
23 | NCI-H2228 | 0.159
24 | NCI-H1648 | 0.231
25 | COR-L23 | 0.117
26 | COR-L 105 | 0.244
27 | NCI-H522 | 0.5
28 | NCI-H520 | 0.356
29 | NCI-H2023 | 0.118
30 | NCI-H1650 | 0.204
31 | SK-MES-1 | 0.135

compound: COC1=C(C=C(C=C1)C2=CC3=NC=CN3C(=N2)NC4=C(C=CC=N4)C(=O)N)OC [BAY61-3606] + NC(=O)Nc1cc(-c2cccc(F)c2)sc1C(=O)N[C@H]1CCCNC1 [AZD7762] (partner 0.2 µM); assay: as above; conditions: first compound 0.02 µM
In short: as §1

Row | Cell Line | relative viability
32 | NCI-H2342 | 0.459
33 | NCI-H1703 | 0.119
34 | NCI-H1648 | 0.723
35 | NCI-H522 | 0.796
36 | NCI-H1792 | 0.783

same assay, conditions: first compound 0.06325 µM

Row | Cell Line | relative viability
37 | NCI-H2342 | 0.496
38 | NCI-H1648 | 0.696
39 | NCI-H522 | 0.698
40 | NCI-H1792 | 0.538

same assay, conditions: first compound 0.2 µM

Row | Cell Line | relative viability
41 | NCI-H2342 | 0.416
42 | NCI-H1648 | 0.777
43 | NCI-H522 | 0.692
44 | NCI-H1792 | 0.802

same assay, conditions: first compound 0.6325 µM

Row | Cell Line | relative viability
45 | NCI-H2342 | 0.726
46 | NCI-H1703 | 0.108
47 | NCI-H522 | 0.762
48 | NCI-H1792 | 0.62

same assay, conditions: first compound 2 µM

Row | Cell Line | relative viability
49 | NCI-H2342 | 0.586
50 | NCI-H1703 | 0.137
51 | NCI-H1648 | 0.643
52 | NCI-H522 | 0.822
53 | NCI-H1792 | 0.455

compound: COc1cccc2c1C(=O)c1c(O)c3c(c(O)c1C2=O)C[C@@](O)(C(=O)CO)C[C@@H]3O[C@H]1C[C@H](N)[C@H](O)[C@H](C)O1 [Doxorubicin] + Cc1nc(NC(=O)N2CCC[C@H]2C(N)=O)sc1-c1ccnc(C(C)(C)C(F)(F)F)c1 [Alpelisib] (partner 2 µM); assay: as above; conditions: first compound 0.001 µM
In short: as §1

Row | Cell Line | relative viability
54 | EBC-1 | 0.835
55 | NCI-H2009 | 1.08
56 | SK-LU-1 | 1.03
57 | SW 1573 | 0.904
58 | NCI-H661 | 0.589
59 | NCI-H2228 | 0.724
60 | Calu-6 | 1.09
61 | NCI-H1703 | 0.335
62 | COR-L23 | 0.826
63 | COR-L 105 | 0.967
64 | IA-LM | 0.675
65 | A549 | 0.799
66 | NCI-H520 | 0.903
67 | NCI-H2023 | 0.595
68 | NCI-H1299 | 1.06
69 | NCI-H1563 | 0.888
70 | NCI-H1792 | 0.794
71 | SK-MES-1 | 0.956
